Converted amounts (≈) assume the structure as drawn.
Test: aqueous solubility in 0.1 M sodium phosphate buffer (pH 7.4)
Format: physicochemical
Description: The present invention provides several polymorph crystalline forms and an amorphous form of the compound of Formula I. Each crystalline or amorphous form of the compound can be characterized by one or more of the following: X-ray powder diffraction pattern (i.e., X-ray diffraction peaks at various diffraction angles (2θ), melting point onset (and onset of dehydration for hydrated forms) as illustrated by endotherms of a Differential Scanning Calorimetry (DSC) thermogram, aqueous solubility, light stability under International Conference on Harmonization (ICH) high intensity light conditions, and physical and chemical storage stability.

| aqueous solubility | SMILES |
| --- | --- |
| 1.3 µg/mL (≈ 2.88 µM) | Cc1cc(C)nc(/C=C/c2n[nH]c3cc(Nc4ccccc4C(=O)NCC#CCO)ccc23)c1 [Form IV, 2-{3-[(E)-2-(4,6-dimethyl-pyridin-2-yl)-vinyl]-1H-indazol-6-ylamino}-N-(4-hydroxy-but-2-ynyl)-benzamide] |
| 1.3 µg/mL (≈ 2.88 µM) | Cc1cc(C)nc(/C=C/c2n[nH]c3cc(Nc4ccccc4C(=O)NCC#CCO)ccc23)c1 [Form II, 2-{3-[(E)-2-(4,6-dimethyl-pyridin-2-yl)-vinyl]-1H-indazol-6-ylamino}-N-(4-hydroxy-but-2-ynyl)-benzamide] |
| 0.8 µg/mL (≈ 1.77 µM) | Cc1cc(C)nc(/C=C/c2n[nH]c3cc(Nc4ccccc4C(=O)NCC#CCO)ccc23)c1 [Form Ia, 2-{3-[(E)-2-(4,6-dimethyl-pyridin-2-yl)-vinyl]-1H-indazol-6-ylamino}-N-(4-hydroxy-but-2-ynyl)-benzamide] |
| 3.2 µg/mL (≈ 7.09 µM) | Cc1cc(C)nc(/C=C/c2n[nH]c3cc(Nc4ccccc4C(=O)NCC#CCO)ccc23)c1 [Form III, 2-{3-[(E)-2-(4,6-dimethyl-pyridin-2-yl)-vinyl]-1H-indazol-6-ylamino}-N-(4-hydroxy-but-2-ynyl)-benzamide] |

Reference: patent publication US20060160863A1, “Polymorphic and amorphous forms of 2-{3-[(E)-2-(4,6-dimethyl-pyridin-2-yl)-vinyl]-1H-indazol-6-ylamino}-N-(4-hydroxy-but-2-ynyl)benzamide” (AGOURON PHARMACEUTICALS, INC., priority 2005, published 2006)
